# Values quoted from earlier work in patent US11066384B2, “Crystalline forms of ARN-509, preparation method and use thereof” (Crystal Pharmaceutical (Suzhou) Co., Ltd., priority 2018, dated 2021).
# Like-named read-outs stand apart in the source and are kept apart here.
# Settings: cited from earlier work
compound,measurement,setting,value
"CNC(=O)c1ccc(N2C(=S)N(c3cnc(C#N)c(C(F)(F)F)c3)C(=O)C23CCC3)cc1F [Form I, 4-[7-(6-cyano-5-trifluoromethylpyridin-3-yl)-8-oxo-6-thioxo-5,7-diazaspiro[3.4]oct-5-yl]-2-fluoro-N-methylbenzamide]",Crystal form transformation,high humidity conditions,transform to form B
"CNC(=O)c1ccc(N2C(=S)N(c3cnc(C#N)c(C(F)(F)F)c3)C(=O)C23CCC3)cc1F [Form H, 4-[7-(6-cyano-5-trifluoromethylpyridin-3-yl)-8-oxo-6-thioxo-5,7-diazaspiro[3.4]oct-5-yl]-2-fluoro-N-methylbenzamide]",Crystal form transformation,high temperature and high humidity conditions,easily transformed into form B
"CNC(=O)c1ccc(N2C(=S)N(c3cnc(C#N)c(C(F)(F)F)c3)C(=O)C23CCC3)cc1F [Form F, 4-[7-(6-cyano-5-trifluoromethylpyridin-3-yl)-8-oxo-6-thioxo-5,7-diazaspiro[3.4]oct-5-yl]-2-fluoro-N-methylbenzamide]",Crystal form transformation,ambient conditions,transform to form A
